Measurements taken from PubChem BioAssay (NCI).
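Exposure lasted 48 hours, with cells grown in 96-well plates and compounds tested at five concentrations. TGI marks complete inhibition of growth.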

What was measured:
Experiment in all cases: growth of human tumour cells (NCI), 48 h
786-0 renal = tested on: 786-0 renal
A498 renal = tested on: A498 renal
A549 NSCLC = tested on: A549 NSCLC
ACHN renal = tested on: ACHN renal
CAKI-1 renal = tested on: CAKI-1 renal
CCRF-CEM leukemia = tested on: CCRF-CEM leukemia
COLO 205 colon = tested on: COLO 205 colon
DLD-1 colon = tested on: DLD-1 colon
DMS 114 small cell lung = tested on: DMS 114 small cell lung
DMS 273 small cell lung = tested on: DMS 273 small cell lung
EKVX NSCLC = tested on: EKVX NSCLC
HCC-2998 colon = tested on: HCC-2998 colon
HCT-116 colon = tested on: HCT-116 colon
HCT-15 colon = tested on: HCT-15 colon
HL-60(TB) leukemia = tested on: HL-60(TB) leukemia
HOP-18 NSCLC = tested on: HOP-18 NSCLC
HOP-62 NSCLC = tested on: HOP-62 NSCLC
HOP-92 NSCLC = tested on: HOP-92 NSCLC
HT29 colon = tested on: HT29 colon
IGROV1 ovarian = tested on: IGROV1 ovarian
KM12 colon = tested on: KM12 colon
KM20L2 colon = tested on: KM20L2 colon
LXFL 529 NSCLC = tested on: LXFL 529 NSCLC
M14 melanoma = tested on: M14 melanoma
MALME-3M melanoma = tested on: MALME-3M melanoma
MOLT-4 leukemia = tested on: MOLT-4 leukemia
NCI-H226 lung = tested on: NCI-H226 lung
NCI-H23 lung = tested on: NCI-H23 lung
NCI-H460 lung = tested on: NCI-H460 lung
NCI-H522 lung = tested on: NCI-H522 lung
OVCAR-3 ovarian = tested on: OVCAR-3 ovarian
OVCAR-4 ovarian = tested on: OVCAR-4 ovarian
OVCAR-8 ovarian = tested on: OVCAR-8 ovarian
RXF 393 renal = tested on: RXF 393 renal
SF-268 CNS = tested on: SF-268 CNS
SF-295 CNS = tested on: SF-295 CNS
SF-539 CNS = tested on: SF-539 CNS
SK-MEL-2 melanoma = tested on: SK-MEL-2 melanoma
SK-MEL-28 melanoma = tested on: SK-MEL-28 melanoma
SK-MEL-5 melanoma = tested on: SK-MEL-5 melanoma
SK-OV-3 ovarian = tested on: SK-OV-3 ovarian
SN12C renal = tested on: SN12C renal
SNB-19 CNS = tested on: SNB-19 CNS
SNB-75 CNS = tested on: SNB-75 CNS
SNB-78 CNS = tested on: SNB-78 CNS
SR leukemia = tested on: SR leukemia
SW-620 colon = tested on: SW-620 colon
TK-10 renal = tested on: TK-10 renal
U251 CNS = tested on: U251 CNS
UACC-257 melanoma = tested on: UACC-257 melanoma
UACC-62 melanoma = tested on: UACC-62 melanoma
UO-31 renal = tested on: UO-31 renal
XF 498 CNS = tested on: XF 498 CNS

Measured: TGI

NNC(=O)N/N=C1\C(=O)N(c2ccc(Cl)c(Cl)c2)C(=O)C(=O)C1c1nc2ccccc2s1 (stereo not drawn)
> 100 µM: all assays above
